Key:
[1] = one drop of ethanol solution dried on glass slide
From the text: To verify the encapsulation, samples were examined under the microscope and a comparison was made between the paclitaxel solution alone and the paclitaxel/delivery vehicle solution. In particular, one drop of each solution was placed on a separate glass slide and the ethanol was allowed to evaporate at room temperature in the open-air. After complete evaporation of the ethanol, dry sample spots were covered and sealed by cover slides and both slides were examined under microscope.
For microscopic analysis, one drop of each solution (i.e., paclitaxel alone paclitaxel/delivery vehicle solutions) and was placed on a separate glass slide. The ethanol was allowed to evaporate at room temperature in the open-air. After complete evaporation of the ethanol, dry sample spots were covered and sealed by cover slides and both slides were examined under the microscope.

[2] = Drug release time study of encapsulated cisplatin by UV-vis absorbance at 300 nm; type: physicochemical
Protocol: A drug release time study was performed on encapsulated cisplatin (i.e., cisplatin/delivery vehicle) to assess the time for complete release of the encapsulated drug from the delivery vehicle. UV-vis spectroscopy was used to monitor the change in absorbance in peaks associated with cisplatin over time.
5 mg of cisplatin was placed in a glass vial and 10 mL of water (10 mL) added. The vial was sonicated in a Bransonic Ultrasonic Cleaner (115 v, 50/60 HZ, […] transducer) for about 5 min to completely dissolve the cisplatin. 50 mg of the delivery vehicle (PEG400)4D4^M was placed in a separate vial and 10 mL of water added. Upon shaking, the polymer dissolved immediately. The cisplatin solution was added to the delivery vehicle solution drop-wise with sonication. After the mixing was complete, a UV-vis spectrum was recorded. The solution was further sonicated for 1 hr and monitored with UV-vis spectroscopy at intervals of 10 min to examine the encapsulation process. After 1 hr, sonication was stopped and incubation was allowed to continue at room temperature without shaking. UV-vis spectra were recorded at 20 min intervals for one hr, followed by 3 hours intervals for the next 24 hrs. After 24 hrs, UV-vis spectra were recorded at random intervals for several days to monitor the release time of the cisplatin. For reference, another solution of pure cisplatin was prepared at a similar concentration, and UV-vis spectra were recorded for the un-encapsulated cisplatin solution at similar intervals as with the encapsulated cisplatin solution. In about 200 hours ([…]), the absorbance of the encapsulated cisplatin solution dropped to the same level as that of the un-encapsulated cisplatin solution. This was viewed as the complete release of encapsulated cisplatin from the vehicle. All data provided in Table 4 were collected at a wavelength of 300 nm.

[3] = Microscopy of dried drops: crystal formation as evidence of cisplatin encapsulation; type: physicochemical; conditions: one drop on glass slide, room temperature, open air
From the text: The cisplatin/delivery vehicle samples were also examined under a microscope to further investigate the encapsulation. Specifically, a comparison was made between encapsulated and un-encapsulated cisplatin.
The cisplatin/delivery vehicle samples were also examined under a microscope to further investigate the encapsulation. A comparison was made between encapsulated and un-encapsulated cisplatin.

For `CC(=O)O[C@H]1C(=O)[C@@]2(C)[C@H]([C@H](OC(=O)c3ccccc3)[C@]3(O)C[C@H](OC(=O)[C@H](O)[C@@H](NC(=O)c4ccccc4)c4ccccc4)C(C)=C1C3(C)C)[C@]1(OC(C)=O)CO[C@@H]1C[C@@H]2O` [un-encapsulated paclitaxel, paclitaxel], the “fluorescence when exposed to fluorescent light (microscope)” value [1] was “shows fluorescence activity”.
With `N.N.[Cl][Pt][Cl]` [un-encapsulated cisplatin, cisplatin] the Absorbance ([2]; time 0.00 hrs) was 0.18, the Absorbance ([2]; time 0.17 hrs) was 0.17 and the Absorbance ([2]; time 0.33 hrs) was 0.16. For the same compound, the Absorbance ([2]; time 0.50 hrs) was 0.16, the Absorbance ([2]; time 0.67 hrs) was 0.16 and the Absorbance ([2]; time 0.83 hrs) was 0.16. The Absorbance ([2]; time 1.00 hrs) was 0.16, the Absorbance ([2]; time 1.33 hrs) was 0.16 and the Absorbance ([2]; time 1.67 hrs) was 0.16. For the same compound, the Absorbance ([2]; time 2.00 hrs) was 0.16, the Absorbance ([2]; time 3.00 hrs) was 0.16 and the Absorbance ([2]; time 21.00 hrs) was 0.15. It also gave an Absorbance ([2]; time 24.00 hrs) of 0.15, an Absorbance ([2]; time 42.00 hrs) of 0.15 and an Absorbance ([2]; time 45.00 hrs) of 0.15. For the same compound, the Absorbance ([2]; time 72.00 hrs) was 0.15, the Absorbance ([2]; time 88.00 hrs) was 0.15 and the Absorbance ([2]; time 120.00 hrs) was 0.15. The Absorbance ([2]; time 174.00 hrs) was 0.15, the Absorbance ([2]; time […]) was 0.15 and the “crystal formation as water evaporates (microscope)” value [3] was “formed crystals”.

From US7745547B1, “Multi-arm cyclic or cubic siloxane-based formulations for drug delivery” (Becton, Dickinson and Company, priority 2005, dated 2010)
